Experimental data as given in patent US20260144769A1, “4-PHENYLBUTYRATE RESTORED GABA UPTAKE AND REDUCED SEIZURES IN SLC6A1 VARIANT-MEDIATED DISORDERS” (Vanderbilt University, priority 2022, published 2026).

Legend:
GAT-1 A288V = molecular target: T1, GAT-1 A288V (Rattus norvegicus, UniProt P23978, A288V); experiment: 3H GABA uptake, corrected iPSC astrocytes transfected with GAT-1^YFP cDNA; type: cell-based; conditions: 2 mM PBA, 24 hrs
T1 construct: The coding region of rGAT-1 was inserted into pEYFP-C1 (Clontech, Palo Alto, CA); expressed in transfected cells; host or cells: HEK293T cells (A4); astrocytes from corrected human iPSCs (A24)
Protocol: (§1) Live images of human neural progenitor cells (NPCs), astrocytes and GABAergic inhibitory neurons differentiated from the human induced pluripotent stem cells (iPSCs) on the day of experiment. […] The DMSO treated corrected or patient cells was taken as 1. […] GABA flux was measured after 30 min transport at room temperature. The influx of GABA, expressed in pmol/μg protein/min, was averaged from duplicates for each condition and for each transfection. The average counting was DMSO treated condition taken as 1. In FIG. 5B, FIG. 5D and FIG. 5F, 966 stands for CI-966 (50 μM) and 711 stands for NNC-711 (35 μM) that was applied 30 min to the astrocytes transfected with the wildtype GAT-1^YFP before preincubation and removed during preincubation. In FIGS. 5B and D, ***p<0.001 vs. corrected DMSO treated. § § <0.01, § § § p<0.001 vs. patient DMSO treated. […] In FIGS. 5B-E, n=4-8 batches of cells. In FIG. 5F, n=4-5 different transfections). Unpaired t test was used for FIG. 5C and FIG. 5E. One-way analysis of variance followed by a Dunnett post hoc multiple comparison test was used in FIG. 5B, FIG. 5D and FIG. 5F. Values were expressed as mean±S.E.M.).
(§2) The plasmid cDNA encoding enhanced yellow fluorescent protein (EYFP)-tagged rat GAT-1 has been previously described. The coding region of rGAT-1 was inserted into pEYFP-C1 (Clontech, Palo Alto, CA). QuikChange Site-directed Mutagenesis kit was utilized to introduce the GAT-1 variants into a wildtype GAT-1 plasmid. The product was then amplified via polymerase chain reaction, transformed using DH5a competent cells, and plated. A clone was chosen and grown overnight. All the GAT-1 variants were confirmed by DNA sequencing. Both the wildtype and the variant cDNAs were prepared with Qiagen Maxiprep kit.
(§3) Astrocytes were differentiated starting from day 5 of NPC passage 1 with the astrocyte culture medium from Sciencell (catalog 1801) following the protocol as previously described. The cell culture medium was refreshed every other day and the cells were passaged at ˜70% confluency. About 1.5×10^5 cells were seeded in each 35 mm dish or each well in 6-well plate when passaging. The differentiation was continuous until the day 30 and all the astrocytes used in experiments in this study were at day 30 after differentiation.
(§4) Briefly, cells were cultured in […] dishes for 3 days before the GABA uptake experiment in DMEM with 10% fetal bovine serum and 1% penicillin/streptomycin. The cells were then transfected with equal amounts of the wildtype or the mutant GAT-1 cDNAs (1 μg) for each condition at 24 hrs or 48 hrs after plating. GABA uptake assay was carried out 48 hrs after transfection. The cells were incubated with preincubation solution for 15 min and then incubated with preincubation solution containing 1 μci/mL 3H GABA and 10 μM unlabeled GABA for 30 min at room temperature. After washing, the cells were lysed with 0.25 N NaOH for 1 hr. Glacial acetic acid was added, and lysates were then determined on a liquid scintillator with QuantaSmart. The flux of GABA (pmol/μg/min) was averaged with at least triplets for each condition at each transfection. The average counting was taken as n=1. The untransfected condition was taken as a baseline that was subtracted from both the wildtype and the mutant conditions. The pmol/μg/min in the mutant was then normalized to the wildtype from each experiment, which was arbitrarily taken as 100%. The protocols for GABA reuptake assay in cultured mouse astrocytes, neuron or iPSC derived cells were modified from the GABA uptake protocol on HEK 293T cells. GAT-1 inhibitors CL-966 and NNC-711 were applied each time to make sure the radioactive counts were specific.
(§5) The working solution was stored at 4° C.
(§6) Wildtype or the mutant GAT-1^YFP were transfected (1 μg cDNAs per 35 mm^2 dishes) in the astrocytes derived from the corrected iPSCs for 48 hrs. […]

GAT-1 G362R = molecular target: T2, GAT-1 G362R (Rattus norvegicus, UniProt P23978, G362R); experiment: as above; type: cell-based; conditions: 2 mM PBA, 24 hrs
T2 construct: The coding region of rGAT-1 was inserted into pEYFP-C1 (Clontech, Palo Alto, CA); expressed in transfected cells; host or cells: human astrocytes differentiated from CRISPR-corrected patient iPSCs
Protocol: as §1, §2, §3, §4, §5, §6

SMILES: O=C(O)CCCc1ccccc1 [PBA, 4-phenylbutyric acid]
- GABA uptake normalized to its DMSO treated (GAT-1 A288V): 1.204±0.031
- GABA uptake normalized to its DMSO treated (GAT-1 G362R): 1.25±0.023
